According to publication PMC11320730, “5-Methoxy-2-aminoindane Reverses Diet-Induced Obesity and Improves Metabolic Parameters in Mice: A Potential New Class of Antiobesity Therapeutics” (ACS Pharmacology & Translational Science, 2024):

Columns and labels:
5-HT1A receptor = target: 5-HT1A receptor; design: method as in PMID 30904940; conditions: cited from earlier work
MAO-B = tested on: MAO-B; design: method as in PMID 29458138; conditions: cited from earlier work
[1] = tested on: serotonin transporter (SERT); design: method as in PMID 30904940; conditions: cited from earlier work
[2] = tested on: hepatic lipid metabolism genes; experiment: Real-time PCR of liver mRNA in DIO mice; type: in vivo; conditions: 40 mg/kg/day
Method: (§1) Male C57BL/6 mice were used to establish DIO by feeding them a high-fat diet (HFD; 60% cal/L fat, 20% cal/L protein, and 20% cal/L carbohydrates; Research Diet, D12492) for 18 weeks. After this period, mice were treated with either vehicle (sterile water, N = 8) or MEAI (N = 11) daily for 28 days by gavage at a dose of 40 mg/kg/day. Age-matched control mice (N = 10) on a standard diet (STD; 14% kcal fat, 24% kcal protein, 62% kcal carbohydrates; NIH-31 rodent diet) received vehicle daily. The body weight of all mice was monitored daily, and total body fat and lean mass were determined by EchoMRI-100H (Echo Medical Systems LLC, Houston, Texas, USA). On day 29, at the end of the experimental period, mice were euthanized by a cervical dislocation under anesthesia. The kidneys, brain, liver, and fat pads were removed and weighed, and samples were either snap-frozen or fixed in buffered 4% formalin. Trunk blood was collected to determine the biochemical parameters.
mRNA from livers was extracted using a Bio-Tri RNA lysis buffer (Bio-Lab, Israel), followed by DNase I treatment (Thermo Scientific, Illinois, USA), and reverse transcribed using the qScript cDNA Synthesis kit (Quantabio, Beverly, Massachusetts, USA). Real-time PCR was performed using an iTaq Universal SYBR Green Supermix (Bio-Rad, California, USA) and the CFX connect ST system (Bio-Rad, California, USA). The full list of primers is available as Table S1.

5-HT2B = 5-HT2B (Homo sapiens, UniProt P41595); experiment: Ligand binding assay (Eurofins); design: Eurofins (contract screening service); conditions: read-out: inhibitory activity (% inhibition of the binding of a specific ligand)
5-HT2B, sequence (P41595 whole entry): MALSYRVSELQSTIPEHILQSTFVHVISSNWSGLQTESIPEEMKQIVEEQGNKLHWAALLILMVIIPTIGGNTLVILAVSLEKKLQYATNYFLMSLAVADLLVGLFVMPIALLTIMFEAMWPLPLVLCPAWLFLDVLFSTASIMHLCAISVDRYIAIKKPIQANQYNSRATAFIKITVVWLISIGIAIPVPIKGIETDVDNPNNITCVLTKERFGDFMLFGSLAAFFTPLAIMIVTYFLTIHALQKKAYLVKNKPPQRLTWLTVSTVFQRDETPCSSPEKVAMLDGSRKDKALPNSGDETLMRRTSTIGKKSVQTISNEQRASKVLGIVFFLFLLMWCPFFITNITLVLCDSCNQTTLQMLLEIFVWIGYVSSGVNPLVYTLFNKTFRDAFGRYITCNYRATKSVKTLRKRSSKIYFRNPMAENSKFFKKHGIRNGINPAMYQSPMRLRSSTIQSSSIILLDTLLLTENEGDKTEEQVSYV
Method: MEAI at 10 μM was tested in ligand binding assays at Eurofins Inc., as described previously.[20] Compound binding was calculated as a % inhibition of the binding of a ligand specific for each target. Results showing an inhibition or stimulation higher than 50% are considered to represent significant effects of MEAI. In each experiment, and if applicable, the respective reference compound was tested concurrently with MEAI and the data were compared with historical values determined at Eurofins. The experiment was accepted in accordance with the Eurofins validation Standard Operating Procedure.

C57Bl/6 mice = experiment: Acute single oral dose of MEAI: drug tolerability; type: in vivo; conditions: lean male mice
Method: Male 6-week-old C57Bl/6 mice (Harlan, Israel) were maintained in standard conditions under a 12 h light/dark cycle and fed ad libitum. A total of 32 animals were divided into four experimental groups (N = 8 mice per group) receiving single doses of 40, 60, or 100 mg/kg of MEAI or vehicle (sterile water), which was administered via oral gavage 2 h prior to the dark phase. The animals were monitored for 48 h postdose for drug tolerability, food and water intakes, and activity and metabolic parameters. At the end of the experiment, the animals were euthanized, and tissues (brain, liver, fat, and kidney) and blood were collected and stored in a frozen state for future analyses.

[3] = tested on: liver of DIO C57BL/6 mice; experiment: Liver weight, hepatic triglyceride and cholesterol contents, histopathology and Oil Red O staining in DIO mice; type: in vivo; conditions: 40 mg/kg/day
Method: as §1
At the time of animal sacrifice, liver tissue was extracted following the established protocol described previously.[19] The extracted liver tissue was then analyzed for cholesterol and triglyceride contents using a Cobas C-111 chemistry analyzer (Roche, Switzerland).
Paraffin-embedded liver sections (5 μm) from five animals per group were processed for hematoxylin–eosin staining. Liver images were captured using a Zeiss Axio Scope A1 light microscope (Carl Zeiss AG, Jena, Germany) equipped with a Zeiss AxioCam ICc 5 color camera. Ten random 40× fields of view were taken from each animal to obtain representative images.
Liver cryosections (8 μm) were stained with Oil Red O (Cat# ab150678; Abcam, Cambridge, UK) following the manufacturer’s protocol. Images were acquired as described above. For quantitative analysis of Oil Red O staining, the area of lipid droplets in the liver cryosections was measured using ImageJ software.

5-HT2B receptor = target: 5-HT2B receptor; design: method as in PMID 30904940; conditions: cited from earlier work
DIO C57BL/6 mice = experiment: Wheel running and locomotor activity in DIO mice; type: in vivo; conditions: 40 mg/kg/day
Method: as §1
The activity energy expenditure was calculated based on eq 7: [drawing 7] 7
The assessment of wheel running and locomotor activity was performed by using the Promethion High-Definition Behavioral Phenotyping System (Sable Instruments, Inc., Las Vegas, Nevada, USA). Wheel revolutions were measured with a monitor that recorded voluntary wheel running activity, and locomotor activity was quantified using disruptions of infrared XYZ beam arrays with a beam spacing of 0.25 cm. Pedestrian locomotion represented the sum of all directed ambulatory locomotion within the beam break system, using a speed cutoff of 1 cm/s. Total distance represented the sum of all distances traveled within the beam break system, not including any distance run on the wheel in meters (m); this included fine movements (such as grooming and scratching).

MAO-A = tested on: MAO-A; design: method as in PMID 29458138; conditions: cited from earlier work
[4] = vs HFD-vehicle, did not surpass STD-vehicle

## COc1ccc2c(c1)CC(N)C2.Cl (centres unmarked) [MEAI, 2,3-Dihydro-5-methoxy-1H-inden-2-amine hydrochloride]
5-HT1A receptor
  Ki: 2.5 µM
MAO-B
  binding inhibition: unaffected
[1]
  interaction with transporter: interacts
[2]
  7-dehydrocholesterol reductase (Dhcr) expression: no significant changes
  Acaca mRNA expression: significantly decreased
  Crebp expression: did not affect
  Dgat2 expression: did not affect
  Fabp1 mRNA expression: significantly decreased
  Fasn mRNA expression: significantly decreased
  G6pdx mRNA expression: significantly decreased
  Hmgcr expression: no significant changes
  LDL receptor (Lldr) expression: no significant changes
  Nr1h3 expression: no significant changes
  Pparg expression: did not affect
  Scd1 mRNA expression: significantly decreased
  Srebp1 expression: did not affect
  hormone-sensitive lipase (Hsl) mRNA expression: no significant changes
[2]; p < 0.05
  Cd36 mRNA expression: significantly downregulated
  lipoprotein lipase (Lpl) mRNA level: significant decrease
5-HT2B
  inhibition at 10 µM: > 50%
C57Bl/6 mice; single oral dose 100 mg/kg, within a few hours
  deaths after dosing: two subjects in the 100 mg/kg group died
C57Bl/6 mice; single oral dose, 40 and 60 mg/kg
  drug tolerability: well-tolerated
[3]; DIO mice, vs HFD vehicle
  Oil Red O staining of liver: decrease
  hepatic cholesterol levels: trend toward a reduction
  lipid vacuole numbers in liver: reduced
  liver triglycerides: significant reductions
[3]; HFD-fed mice, 28 days
  liver weight: reduced
  liver weight to body weight ratio: normalized
5-HT2B receptor
  Ki: 4.79 µM
DIO C57BL/6 mice
  voluntary wheel running: increased capability to run on the voluntary wheel
  wheel running speed: comparable to the STD-vehicle-treated group
DIO C57BL/6 mice; Results section
  interaction times with food and water dispensers (time budget): extended
DIO C57BL/6 mice; pronounced during nocturnal phase
  voluntary ambulatory behaviors (pedestrian activity and grooming): significantly boosted
DIO C57BL/6 mice; trend toward an increase
  energy expenditure associated with activity levels: did not reach statistical significance
DIO C57BL/6 mice; [4]
  pedestrian activity: increased
  pedestrian speed: increased
  total distance traveled: increased
MAO-A
  binding inhibition: unaffected
